This experiment in a line: hydrogen peroxide decomposition assay of catalase recovered from PLGA matrices. Type of experiment: biochemical. The conditions noted are these: catalase removed from PLGA matrices by degradation of the polymer; processed in supercritical CO2 at 45° C. and 200 bar, 30 minutes. How it is done: In a specific example of the use of the invention particles of the protein catalase (ca mean diameter 50 micron) are mixed with the biodegradable polymer poly(DL-lactide-co-glycolide) (PLGA) as per example 3, in the presence of super critical CO2 at 45° C. and 200 bar. After agitation for 30 minutes, the autoclave was depressurized leading to solid dispersions of a monolith form, in which catalase particles are intimately mixed with the biodegradable polymer. FIGS. 3a) and 3b) are scanning electron microscopy images at respective higher and lower magnifications of 10 micron (particles and micropores visible) and 50 micron (particles embedded in “channels”).
Removal of the catalase from the matrices by degradation of the polymer enabled the activity of the enzyme to be quantified using a hydrogen peroxide decomposition assay.

On to catalase, for which the “activity of the enzyme after SCF processing” value is “lost no appreciable activity”.

Values taken from US6670407B2, “Biofunctional polymers prepared in supercritical fluid” (University of Nottingham, priority 1997, dated 2003).
